Laboratory results: US20220331327A1, “THE USE OF PARAXANTHINE TO IMPROVE PERFORMANCE IN VIDEO GAMERS” (priority 2021, published 2022)

What was measured:
[1] = system: healthy men and women playing video games; assay: Video game performance, Super Smash Brothers Ultimate; format: in vivo, human; parameters: Damage Taken, Mean of visit / Damage Taken, Mean ± SD: unit not given here; details: 200 mg daily; for Damage Taken, Mean ± SD / Falls (Deaths), Mean ± SD / Hit Percentage, Mean ± SD / Damage Taken, Mean of visit / Falls (Deaths), Mean of visit / Hit Percentage, Mean of visit: n = 5; for Damage Taken, Mean of visit / Falls (Deaths), Mean of visit / Hit Percentage, Mean of visit: mean of 20-120 min; for Damage Taken, Δ Baseline / Falls (Deaths), Δ Baseline: versus baseline; for Damage Taken, Δ PLA / Falls (Deaths), Δ PLA: versus placebo
Protocol: The effectiveness of study-products (paraxanthine and placebo) was assessed by measuring in-game performance, cognition during gaming (Stroop Test) and mood status during gaming (Profile of Mood States (POMS)). All study participants played the game Super Smash Brothers Ultimate (Nintendo, Release date: Dec. 7, 2018). Each study participant arrived, completed all necessary testing and began playing the game. Game consoles and controllers were available, but if participants wanted to bring their own controller, they were allowed to do so. The game was be set to the same level and strategy for each player. During each session, study participants played the game for 60 minutes and took a break to complete the Stroop Test and POMS. Participants then played the game for an additional 60 minutes before completing their third tests. […]

healthy subject = assay: Video game Tetris, game performance measured by play time; format: in vivo, human; details: 100 mg prior to playing Tetris; one subject
Text: Each of the three games were separated by a one-week washout period. In Tetris, the player brings down blocks from the top of the screen. The player can move the blocks around, either left to right and/or you can rotate them. The blocks fall at a certain rate, but the player can make them fall faster if he/she is sure of the positioning. The game Tetris becomes more challenging the longer you play. It becomes faster the better the player performs. The player has to make the same decisions but under a higher level of pressure. Each time the player clears a line in Tetris, the player is awarded more points. Each time the pieces reach the top of the screen, the game is over. Game performance was measured by play time. The player was not allowed to press a button to increase the speed of the current piece's descent or cause the piece to drop and lock into place immediately, known as a “soft drop” and a “hard drop”, respectively.

[2] = gaming between 100 and 120 minutes of play

## Cn1c(=O)[nH]c2ncn(C)c2c1=O [Paraxanthine, paraxanthine]
[1]; 3 weeks, 20 min
  Damage Taken, Mean ± SD: 870.00 ± 301.09
  Falls (Deaths), Mean ± SD: 5.75 ± 2.63
  Hit Percentage, Mean ± SD: 37.75 ± 9.64
[1]; 3 weeks, 40 min
  Damage Taken, Mean ± SD: 1103.00 ± 253.95
  Falls (Deaths), Mean ± SD: 8 ± 3.67
  Hit Percentage, Mean ± SD: 35.8 ± 8.93
[1]; 3 weeks, 60 min
  Damage Taken, Mean ± SD: 987.25 ± 396.60
  Falls (Deaths), Mean ± SD: 7 ± 3.83
  Hit Percentage, Mean ± SD: 38 ± 5.72
[1]; 3 weeks, 80 min
  Damage Taken, Mean ± SD: 1351.80 ± 341.08
  Falls (Deaths), Mean ± SD: 9 ± 3.32
  Hit Percentage, Mean ± SD: 35.2 ± 8.17
[1]; 3 weeks, 100 min
  Damage Taken, Mean ± SD: 1619.60 ± 383.27
  Falls (Deaths), Mean ± SD: 11.4 ± 4.04
  Hit Percentage, Mean ± SD: 29.4 ± 8.08
[1]; 3 weeks, 120 min
  Damage Taken, Mean ± SD: 2006.60 ± 376.34
  Falls (Deaths), Mean ± SD: 13 ± 3.74
  Hit Percentage, Mean ± SD: 26.4 ± 3.51
[1]; 3 weeks
  Damage Taken, Mean of visit: 1,323.0
  Falls (Deaths), Mean of visit: 9.0
  Hit Percentage, Mean of visit: 33.8
  Damage Taken, Δ Baseline: −9.4%
  Falls (Deaths), Δ Baseline: −15.5%
  Damage Taken, Δ PLA: −9.5%
  Falls (Deaths), Δ PLA: −21.7%
[1]; 6 weeks, 20 min
  Damage Taken, Mean ± SD: 723.62 ± 457.07
  Falls (Deaths), Mean ± SD: 5.2 ± 1.92
  Hit Percentage, Mean ± SD: 28.09 ± 16.43
[1]; 6 weeks, 40 min
  Damage Taken, Mean ± SD: 1077.40 ± 258.42
  Falls (Deaths), Mean ± SD: 8 ± 2.74
  Hit Percentage, Mean ± SD: 42.2 ± 12.46
[1]; 6 weeks, 60 min
  Damage Taken, Mean ± SD: 1182.80 ± 317.56
  Falls (Deaths), Mean ± SD: 7.4 ± 2.7
  Hit Percentage, Mean ± SD: 39.4 ± 6.88
[1]; 6 weeks, 80 min
  Damage Taken, Mean ± SD: 1425.80 ± 173.33
  Falls (Deaths), Mean ± SD: 10 ± 2.55
  Hit Percentage, Mean ± SD: 33 ± 5.43
[1]; 6 weeks, 100 min
  Damage Taken, Mean ± SD: 1697.60 ± 336.71
  Falls (Deaths), Mean ± SD: 13.2 ± 2.59
  Hit Percentage, Mean ± SD: 30.4 ± 4.98
[1]; 6 weeks, 120 min
  Damage Taken, Mean ± SD: 1921.80 ± 379.30
  Falls (Deaths), Mean ± SD: 14.2 ± 3.56
  Hit Percentage, Mean ± SD: 27.2 ± 4.15
[1]; 6 weeks
  Damage Taken, Mean of visit: 1,338.2
  Falls (Deaths), Mean of visit: 9.7
  Hit Percentage, Mean of visit: 33.4
  Damage Taken, Δ Baseline: −8.4%
  Falls (Deaths), Δ Baseline: −8.9%
  Damage Taken, Δ PLA: −14.0%
  Falls (Deaths), Δ PLA: −15.6%
[1]; Baseline visit, 20 min
  Damage Taken, Mean ± SD: 981.20 ± 457.06
  Falls (Deaths), Mean ± SD: 7 ± 3.54
  Hit Percentage, Mean ± SD: 36.6 ± 11.13
[1]; Baseline visit, 40 min
  Damage Taken, Mean ± SD: 1306.75 ± 553.65
  Falls (Deaths), Mean ± SD: 10.5 ± 5.26
  Hit Percentage, Mean ± SD: 30.25 ± 11.15
[1]; Baseline visit, 60 min
  Damage Taken, Mean ± SD: 1207.60 ± 425.74
  Falls (Deaths), Mean ± SD: 8 ± 3.39
  Hit Percentage, Mean ± SD: 34.6 ± 9.92
[1]; Baseline visit, 80 min
  Damage Taken, Mean ± SD: 1527.80 ± 541.49
  Falls (Deaths), Mean ± SD: 10.8 ± 4.97
  Hit Percentage, Mean ± SD: 34.2 ± 8.23
[1]; Baseline visit, 100 min
  Damage Taken, Mean ± SD: 1647.20 ± 359.67
  Falls (Deaths), Mean ± SD: 11 ± 3.08
  Hit Percentage, Mean ± SD: 30.6 ± 5.98
[1]; Baseline visit, 120 min
  Damage Taken, Mean ± SD: 2067.80 ± 803.18
  Falls (Deaths), Mean ± SD: 16.6 ± 8.59
  Hit Percentage, Mean ± SD: 24.4 ± 4.28
[1]; Baseline visit
  Damage Taken, Mean of visit: 1,460.9
  Falls (Deaths), Mean of visit: 10.65
  Hit Percentage, Mean of visit: 31.7
[1]; after 3 weeks
  reduction of own damage taken compared to baseline (prior to supplementation): 9.4%
  reduction of own damage taken compared to placebo: 9.5%
  reduction of own deaths compared to baseline (prior to supplementation): 15.5%
  reduction of own deaths compared to placebo: 21.7%
[1]; [2]
  improvement over placebo, damage taken, later stages of gaming: 30.9%
  improvement over placebo, number of deaths, later stages of gaming: 34%
Healthy subject
  gaming performance (play time), effect in words: increased gaming performance compared to placebo, and compared to caffeine intake
